According to ChEMBL document CHEMBL5712909, “WDR5 inhibition halts metastasis dissemination by repressing the mesenchymal phenotype of breast cancer cells” (2019):
Activity calls are given as the source filed them. The calls are words filed in the database; no cut-off is given here.

How the values were obtained:
MBC26 [1] = experiment: Inhibition of cell migration in human MBC26 cells assessed as reduction in cell migration at 20 microM for 3 days by crystal violet staining based transwell assay; assay type: functional; details: time 3.0 day
MDA-MB-231 [2] = experiment: Induction of cell cycle arrest in human MDA-MB-231 cells assessed as accumulation of cells in G2/M phase at 10 uM for 3 days by BrDU and PI staining based flow cytometric analysis (reference value: 19.3%); assay type: functional
MBC2 [3] = experiment: Inhibition of cell migration in human MBC2 cells assessed as reduction in cell migration at 20 microM for 3 days by crystal violet staining based transwell assay; assay type: functional; details: time 3.0 day
MDA-MB-231 [4] = experiment: Induction of cell cycle arrest in human MDA-MB-231 cells assessed as accumulation of cells in G2/M phase at 10 nM for 3 days by BrDU and PI staining based flow cytometric analysis (reference value: 19.3%); assay type: functional
MDA-MB-231 [5] = experiment: Induction of cell cycle arrest in human MDA-MB-231 cells assessed as accumulation of cells in not cycling S phase at 20 microM for 3 days by BrDU and PI staining based flow cytometric analysis (reference value: 2.5%); assay type: functional
MDA-MB-231 [6] = experiment: Induction of cell cycle arrest in human MDA-MB-231 cells assessed as accumulation of cells in G0/G1 phase at 10 uM for 3 days by BrDU and PI staining based flow cytometric analysis (reference value: 30.5%); assay type: functional
MDA-MB-231 [7] = experiment: Induction of cell cycle arrest in human MDA-MB-231 cells assessed as accumulation of cells in G0/G1 phase at 20 microM for 3 days by BrDU and PI staining based flow cytometric analysis (reference value: 30.5%); assay type: functional; details: time 3 day
MBC26 [8] = experiment: Antiproliferative activity against human MBC26 cells assessed as reduction in cell viability at 20 uM for 3 days by cell titre glo assay; assay type: functional, cell-based; details: time 3.0 day
MBC2 [9] = experiment: Antiproliferative activity against human MBC2 cells assessed as reduction in cell viability at 20 uM for 3 days by cell titre glo assay; assay type: functional, cell-based; details: time 3.0 day
MDA-MB-231 [10] = experiment: Induction of cell cycle arrest in human MDA-MB-231 cells assessed as accumulation of cells in G2/M phase at 20 microM for 3 days by BrDU and PI staining based flow cytometric analysis (reference value: 19.3%); assay type: functional; details: time 3 day
MDA-MB-231 [11] = experiment: Inhibition of cell migration in human MDA-MB-231 cells assessed as reduction in cell migration incubated for 3 days by crystal violet staining based transwell assay; assay type: functional; details: dose 1-20 µM, time 3.0 day
MCF10DCIS [12] = experiment: Inhibition of cell migration in human MCF10DCIS cells assessed as reduction in cell migration incubated for 3 days by crystal violet staining based transwell assay; assay type: functional; details: dose 1-20 µM, time 3.0 day
MDA-MB-231 [13] = experiment: Induction of cell cycle arrest in human MDA-MB-231 cells assessed as accumulation of cells in S phase at 20 microM for 3 days by BrDU and PI staining based flow cytometric analysis (reference value: 45.7%); assay type: functional
MCF-10A = experiment: Inhibition of cell migration in human MCF-10A cells assessed as reduction in cell migration incubated for 3 days by crystal violet staining based transwell assay; assay type: functional; details: dose 1-20 µM, time 3.0 day
MDA-MB-231 [14] = experiment: Induction of cell cycle arrest in human MDA-MB-231 cells assessed as accumulation of cells in G0/G1 phase at 10 nM for 3 days by BrDU and PI staining based flow cytometric analysis (reference value: 30.5%); assay type: functional
MBC2 [15] = experiment: Antiproliferative activity against human MBC2 cells assessed as reduction in cell viability at 10 uM for 3 days by cell titre glo assay; assay type: functional, cell-based; details: time 3.0 day
MDA-MB-231 [16] = experiment: Induction of cell cycle arrest in human MDA-MB-231 cells assessed as accumulation of cells in not cycling S phase at 10 nM for 3 days by BrDU and PI staining based flow cytometric analysis (reference value: 2.5%); assay type: functional
MDA-MB-231 [17] = experiment: Induction of cell cycle arrest in human MDA-MB-231 cells assessed as accumulation of cells in not cycling S phase at 10 uM for 3 days by BrDU and PI staining based flow cytometric analysis (reference value: 2.5%); assay type: functional; details: time 3 day
MDA-MB-231 [18] = experiment: Induction of cell cycle arrest in human MDA-MB-231 cells assessed as accumulation of cells in S phase at 10 uM for 3 days by BrDU and PI staining based flow cytometric analysis (reference value: 45.7%); assay type: functional; details: time 3 day
MDA-MB-231 [19] = experiment: Inhibition of cell migration in human MDA-MB-231 cells assessed as reduction in cell migration at 10 microM for 3 days by crystal violet staining based transwell assay; assay type: functional; details: time 3.0 day
MCF10DCIS [20] = experiment: Inhibition of cell migration in human MCF10DCIS cells assessed as reduction in cell migration at 10 microM for 3 days by crystal violet staining based transwell assay; assay type: functional; details: time 3.0 day
MDA-MB-231 [21] = experiment: Induction of cell cycle arrest in human MDA-MB-231 cells assessed as accumulation of cells in S phase at 10 nM for 3 days by BrDU and PI staining based flow cytometric analysis (reference value: 45.7%); assay type: functional
MBC26 [22] = experiment: Antiproliferative activity against human MBC26 cells assessed as reduction in cell viability at 10 uM for 3 days by cell titre glo assay; assay type: functional, cell-based; details: time 3.0 day
MDA-MB-231 [23] = experiment: Induction of cell cycle arrest in human MDA-MB-231 cells assessed as accumulation of cells in G0/G1 phase at 10 nM for 3 days in presence of galunisertib by BrDU and PI staining based flow cytometric analysis (reference value: 30.5%); assay type: functional; details: time 3 day
MDA-MB-231 [24] = experiment: Induction of cell cycle arrest in human MDA-MB-231 cells assessed as cleaved PARP at 10 nM for 3 days in presence of OICR-9429 by Western blot analysis; assay type: functional, cell-based; details: time 3.0 day
MDA-MB-231 [25] = experiment: Induction of cell cycle arrest in human MDA-MB-231 cells assessed as DNA damage by measuring gamma H2AX phosphorylation at 10 nM for 3 days in presence of galunisertib by Western blot analysis; assay type: functional, cell-based; details: time 3.0 day
MBC2 [26] = experiment: Cytotoxicity against human MBC2 cells assessed as cell viability at 1 to 10 nM for 3 days in presence of OCIR-9429; assay type: functional, cell-based; details: dose 1-10 nM, time 3.0 day
MDA-MB-231 [27] = experiment: Cytotoxicity against human MDA-MB-231 cells assessed as cell viability at 10 nM for 3 days in presence of galunisertib relative to control; assay type: functional; details: MDA-MB-231, 72 h, time 3 day, read-out: Activity
MDA-MB-231 [28] = experiment: Cytotoxicity against human MDA-MB-231 cells assessed as cell viability at 10 nM for 3 days in presence of OCIR-9429 relative to control; assay type: functional; details: MDA-MB-231, 72 h, time 3 day, read-out: Activity
MDA-MB-231 [29] = experiment: Induction of cell cycle arrest in human MDA-MB-231 cells assessed as accumulation of cells in not cycling S phase at 10 nM for 3 days in presence of OCIR-9429 by BrDU and PI staining based flow cytometric analysis (reference value: 2.5%); assay type: functional; details: time 3 day
MDA-MB-231 [30] = experiment: Induction of cell cycle arrest in human MDA-MB-231 cells assessed as accumulation of cells in S phase at 10 nM for 3 days in presence of OCIR-9429 by BrDU and PI staining based flow cytometric analysis (reference value: 45.7%); assay type: functional; details: time 3 day
MBC26 [31] = experiment: Cytotoxicity against human MBC26 cells assessed as cell viability for 3 days at 1 to 10 nM in presence of OCIR-9429; assay type: functional, cell-based; details: dose 1-10 nM, time 3.0 day
MDA-MB-231 [32] = experiment: Induction of cell cycle arrest in human MDA-MB-231 cells assessed as accumulation of cells in G0/G1 phase at 10 nM for 3 days in presence of OCIR-9429 by BrDU and PI staining based flow cytometric analysis (reference value: 30.5%); assay type: functional; details: time 3 day
MDA-MB-231 [33] = experiment: Induction of cell cycle arrest in human MDA-MB-231 cells assessed as DNA damage by measuring gamma H2AX phosphorylation at 10 nM for 3 days in presence of OICR-9429 by Western blot analysis; assay type: functional, cell-based; details: time 3.0 day
MDA-MB-231 [34] = experiment: Induction of cell cycle arrest in human MDA-MB-231 cells assessed as cleaved PARP at 10 nM for 3 days in presence of galunisertib by Western blot analysis; assay type: functional, cell-based; details: time 3.0 day
MDA-MB-231 [35] = experiment: Induction of cell cycle arrest in human MDA-MB-231 cells assessed as accumulation of cells in G2/M phase at 10 nM for 3 days in presence of galunisertib by BrDU and PI staining based flow cytometric analysis (reference value: 19.3%); assay type: functional; details: time 3 day
MDA-MB-231 [36] = experiment: Induction of cell cycle arrest in human MDA-MB-231 cells assessed as accumulation of cells in S phase at 10 nM for 3 days in presence of galunisertib by BrDU and PI staining based flow cytometric analysis (reference value: 45.7%); assay type: functional; details: time 3 day
MDA-MB-231 [37] = experiment: Induction of cell cycle arrest in human MDA-MB-231 cells assessed as accumulation of cells in G2/M phase at 10 nM for 3 days in presence of OCIR-9429 by BrDU and PI staining based flow cytometric analysis (reference value: 19.3%); assay type: functional; details: time 3 day
MDA-MB-231 [38] = experiment: Induction of cell cycle arrest in human MDA-MB-231 cells assessed as accumulation of cells in not cycling S phase at 10 nM for 3 days in presence of galunisertib by BrDU and PI staining based flow cytometric analysis (reference value: 2.5%); assay type: functional; details: time 3 day
MBC2 [39] = experiment: Cytotoxicity against human MBC2 cells assessed as cell viability at 1 to 10 nM for 3 days in presence of galunisertib; assay type: functional, cell-based; details: dose 1-10 nM, time 3.0 day
MBC26 [40] = experiment: Cytotoxicity against human MBC26 cells assessed as cell viability for 3 days at 1 to 10 nM in presence of -Gaulnisertib; assay type: functional, cell-based; details: dose 1-10 nM, time 3.0 day

CN1CCN(c2ccc(-c3cccc(CN4CCOCC4)c3)cc2NC(=O)c2c[nH]c(=O)cc2C(F)(F)F)CC1
inhibition (MBC26 [1]): Active
Activity (MDA-MB-231 [2]; time 3.0 day): Active
inhibition (MBC2 [3]): Active
Activity (MDA-MB-231 [4]; time 3.0 day): Active
Activity (MDA-MB-231 [5]; time 3 day): 2.2%
Activity (MDA-MB-231 [6]; time 3.0 day): inactive
Activity (MDA-MB-231 [7]): 32.3%
Activity (MBC26 [8]): inactive
Activity (MBC2 [9]): inactive
Activity (MDA-MB-231 [10]): 19.1%
inhibition (MDA-MB-231 [11]): Dose-Dependent Effect
inhibition (MCF10DCIS [12]): Dose-Dependent Effect
Activity (MDA-MB-231 [13]; time 3 day): 46%
inhibition (MCF-10A): inactive
Activity (MDA-MB-231 [14]; time 3.0 day): Active

Cc1cccc(-c2nn3c(c2-c2ccnc4ccc(C(N)=O)cc24)CCC3)n1 [GALUNISERTIB]
Activity (MDA-MB-231 [2]; time 3 day): 18.5%
Activity (MBC2 [15]): inactive
Activity (MDA-MB-231 [16]; time 3.0 day): Active
Activity (MDA-MB-231 [5]; time 3.0 day): inactive
Activity (MDA-MB-231 [6]; time 3 day): 30.4%
Activity (MDA-MB-231 [17]): 1.5%
Activity (MDA-MB-231 [18]): 48.8%
inhibition (MDA-MB-231 [19]): Active
inhibition (MCF10DCIS [20]): Active
Activity (MDA-MB-231 [21]; time 3.0 day): Active
Activity (MBC26 [22]): inactive
Activity (MDA-MB-231 [13]; time 3.0 day): inactive

CC(=O)O[C@H]1C(=O)[C@@]2(C)[C@H]([C@H](OC(=O)c3ccccc3)[C@]3(O)C[C@H](OC(=O)[C@H](O)[C@@H](NC(=O)c4ccccc4)c4ccccc4)C(C)=C1C3(C)C)[C@]1(OC(C)=O)CO[C@@H]1C[C@@H]2O [PACLITAXEL]
Activity (MDA-MB-231 [23]): 16.7%
Activity (MDA-MB-231 [24]): Active
Activity (MDA-MB-231 [25]): Active
Activity (MDA-MB-231 [16]; time 3 day): 9.2%
Activity (MBC2 [26]): Active
Activity (MDA-MB-231 [4]; time 3 day): 31.7%
viability at 0.01 µM (MDA-MB-231 [27]): 10%
viability at 0.01 µM (MDA-MB-231 [28]): 10%
Activity (MDA-MB-231 [29]): 11.9%
Activity (MDA-MB-231 [30]): 26.7%
Activity (MBC26 [31]): Active
Activity (MDA-MB-231 [32]): 22.4%
Activity (MDA-MB-231 [33]): Active
Activity (MDA-MB-231 [34]): Active
Activity (MDA-MB-231 [35]): 40.1%
Activity (MDA-MB-231 [36]): 34%
Activity (MDA-MB-231 [37]): 37.5%
Activity (MDA-MB-231 [21]; time 3 day): 38.6%
Activity (MDA-MB-231 [38]): 8%
Activity (MBC2 [39]): Active
Activity (MDA-MB-231 [14]; time 3 day): 19.2%
Activity (MBC26 [40]): Active
